Here are results for seven molecules from patent US9447120B2, “Crystalline forms of zinc trisodium pentetic acid” (Hameln Pharma Plus GmbH, priority 2013, dated 2016).

Series [1] can be described thus: Determination of the hygroscopicity (weight increase in a stability chamber). The class given is physicochemical. How it is done: Here, the samples used were each subjected to the same pre-drying process (cf. Examples 3 and 4). The samples were exposed in each case for the time period stated in the Table at 25° C. and an air humidity of 65% relative air humidity.
The hygroscopicity of Zn-DTPA was checked by measuring the weight increase in a controlled environment. At air temperature (25±2°) C. and (60±5)% air humidity in a stability chamber (Thermo TEC), the weights of two samples (5.000 g) in each case were checked (Analytical balance, XS 205, Mettler Toledo). The weight was checked after 1, 2, 4, 6, 8, 24 and 48 hours.

For series [2] the following is noted: lyophilized powder, over 24 h; cited from earlier work.
[3] abbreviates: Table 6, time 1 h, 25° C., 65% relative air humidity.
[4] abbreviates: Table 6, time 2 h, 25° C., 65% relative air humidity.
Setting [5] is: Table 6, time 4 h, 25° C., 65% relative air humidity.
Where [6] appears, read: Table 6, time 6 h, 25° C., 65% relative air humidity.
Where [7] appears, read: Table 6, time 8 h, 25° C., 65% relative air humidity.
Setting [8] is: Table 6, time 24 h, 25° C., 65% relative air humidity.
Where [9] appears, read: Table 6, time 48 h, 25° C., 65% relative air humidity.

On to `O=C([O-])CN(CCN(CC(=O)[O-])CC(=O)[O-])CCN(CC(=O)[O-])CC(=O)[O-].[Na+].[Na+].[Na+].[Zn+2]` [Amorph I, trisodium zinc diethylenetriaminepentaacetate], for which the Mean mass increase in series [1] (Table 1, time 1 h, product obtained by prior-art route, listed as Batch 1) turned out to be 0.51%; in series [1] (Table 1, time 2 h, product obtained by prior-art route, listed as Batch 1), 0.89%; in series [1] (Table 1, time 4 h, product obtained by prior-art route, listed as Batch 1), 1.56%; in series [1] (Table 1, time 6 h, product obtained by prior-art route, listed as Batch 1), 2.35%; in series [1] (Table 1, time 8 h, product obtained by prior-art route, listed as Batch 1), 2.95%; in series [1] (Table 1, time 24 h, product obtained by prior-art route, listed as Batch 1), 7.38%. Moreover, the Mean mass increase in series [1] (Table 1, time 48 h, product obtained by prior-art route, listed as Batch 1) came out at 11.92%; in series [1] (setting [3]), 0.51%; in series [1] (setting [4]), 0.89%; in series [1] (setting [5]), 1.56%; in series [1] (setting [6]), 2.35%; in series [1] (setting [7]) it was 2.95%. The Mean mass increase is 7.38% in series [1] (setting [8]) and 11.92% in series [1] (setting [9]).

Consider `O=C([O-])CN(CCN(CC(=O)[O-])CC(=O)[O-])CCN(CC(=O)[O-])CC(=O)[O-].[Na+].[Na+].[Na+].[Zn+2]` [Amorph Il, trisodium zinc diethylenetriaminepentaacetate], for which the Mean mass increase in series [1] (Table 1, time 1 h, product obtained by prior-art route, listed as Batch 2) came to 0.56%; in series [1] (Table 1, time 2 h, product obtained by prior-art route, listed as Batch 2), 0.97%; in series [1] (Table 1, time 4 h, product obtained by prior-art route, listed as Batch 2), 1.73%; in series [1] (Table 1, time 6 h, product obtained by prior-art route, listed as Batch 2) it was 2.61%; in series [1] (Table 1, time 8 h, product obtained by prior-art route, listed as Batch 2), 3.26%; in series [1] (Table 1, time 24 h, product obtained by prior-art route, listed as Batch 2), 7.82%. Further, the Mean mass increase in series [1] (Table 1, time 48 h, product obtained by prior-art route, listed as Batch 2) was found to be 12.02%; in series [1] (setting [3]), 0.56%; in series [1] (setting [4]), 0.97%; in series [1] (setting [5]), 1.73%; in series [1] (setting [6]), 2.61%; in series [1] (setting [7]), 3.26%. In addition, the Mean mass increase in series [1] (setting [8]) was 7.82%; in series [1] (setting [9]) it was 12.02%.

Turning to `O=C([O-])CN(CCN(CC(=O)[O-])CC(=O)[O-])CCN(CC(=O)[O-])CC(=O)[O-].[Na+].[Na+].[Na+].[Zn+2]` [Form I, trisodium zinc diethylenetriaminepentaacetate], the Mean mass increase in series [1] (setting [3]) was 0.32%; in series [1] (setting [4]), 0.54%; in series [1] (setting [5]), 0.92%; in series [1] (setting [6]), 1.34%; in series [1] (setting [7]) it was 1.64%; in series [1] (setting [8]), 3.91%. Further, the Mean mass increase in series [1] (setting [9]) came out at 6.81%.

Take `O=C([O-])CN(CCN(CC(=O)[O-])CC(=O)[O-])CCN(CC(=O)[O-])CC(=O)[O-].[Na+].[Na+].[Na+].[Zn+2]` [Form II, A, trisodium zinc diethylenetriaminepentaacetate]: the Mean mass increase in series [1] (setting [3]) was 0.34%; in series [1] (setting [4]) it was 0.57%; in series [1] (setting [5]) it was 1.00%; in series [1] (setting [6]), 1.49%; in series [1] (setting [7]), 1.84%; in series [1] (setting [8]), 4.42%. For the same molecule, the Mean mass increase in series [1] (setting [9]) came to 5.07%.

Consider `O=C([O-])CN(CCN(CC(=O)[O-])CC(=O)[O-])CCN(CC(=O)[O-])CC(=O)[O-].[Na+].[Na+].[Na+].[Zn+2]` [Form II, B, trisodium zinc diethylenetriaminepentaacetate], for which the Mean mass increase in series [1] (setting [3]) was determined as 0.41%; in series [1] (setting [4]), 0.72%; in series [1] (setting [5]), 1.29%; in series [1] (setting [6]), 1.97%; in series [1] (setting [7]) it was 2.43%; in series [1] (setting [8]), 5.18%. The same molecule yielded a Mean mass increase in series [1] (setting [9]) of 5.25%.

As to `O=C([O-])CN(CCN(CC(=O)[O-])CC(=O)[O-])CCN(CC(=O)[O-])CC(=O)[O-].[Na+].[Na+].[Na+].[Zn+2]` [Zn-DTPA, trisodium zinc diethylenetriaminepentaacetate], the water absorbed entry in series [2] was “more than 10 % by weight”.

Consider `O=C([O-])CN(CCN(CC(=O)[O-])CC(=O)[O-])CCN(CC(=O)[O-])CC(=O)[O-].[Na+].[Na+].[Na+].[Zn+2]` [conventional Zn-DTPA, trisodium zinc diethylenetriaminepentaacetate], for which the “behaviour due to hygroscopy” value in series [1] (sufficiently long exposure to air humidity) is recorded as “deliquesces”.
